This passage reports IC50 results from patent US9586951B2 (FUJIFILM Corporation, priority 2013, dated 2017).

Each structure is given as a SMILES string.

In the test the target is T1, ATM (Homo sapiens, UniProt Q13315).
T1 construct: detecting phosphorylation of Chk2 in a human non-small cell lung cancer cell line NCI-H460 (ATCC company); host or cells: NCI-H460 human non-small cell lung cancer cells
T1 sequence (Q13315 whole entry): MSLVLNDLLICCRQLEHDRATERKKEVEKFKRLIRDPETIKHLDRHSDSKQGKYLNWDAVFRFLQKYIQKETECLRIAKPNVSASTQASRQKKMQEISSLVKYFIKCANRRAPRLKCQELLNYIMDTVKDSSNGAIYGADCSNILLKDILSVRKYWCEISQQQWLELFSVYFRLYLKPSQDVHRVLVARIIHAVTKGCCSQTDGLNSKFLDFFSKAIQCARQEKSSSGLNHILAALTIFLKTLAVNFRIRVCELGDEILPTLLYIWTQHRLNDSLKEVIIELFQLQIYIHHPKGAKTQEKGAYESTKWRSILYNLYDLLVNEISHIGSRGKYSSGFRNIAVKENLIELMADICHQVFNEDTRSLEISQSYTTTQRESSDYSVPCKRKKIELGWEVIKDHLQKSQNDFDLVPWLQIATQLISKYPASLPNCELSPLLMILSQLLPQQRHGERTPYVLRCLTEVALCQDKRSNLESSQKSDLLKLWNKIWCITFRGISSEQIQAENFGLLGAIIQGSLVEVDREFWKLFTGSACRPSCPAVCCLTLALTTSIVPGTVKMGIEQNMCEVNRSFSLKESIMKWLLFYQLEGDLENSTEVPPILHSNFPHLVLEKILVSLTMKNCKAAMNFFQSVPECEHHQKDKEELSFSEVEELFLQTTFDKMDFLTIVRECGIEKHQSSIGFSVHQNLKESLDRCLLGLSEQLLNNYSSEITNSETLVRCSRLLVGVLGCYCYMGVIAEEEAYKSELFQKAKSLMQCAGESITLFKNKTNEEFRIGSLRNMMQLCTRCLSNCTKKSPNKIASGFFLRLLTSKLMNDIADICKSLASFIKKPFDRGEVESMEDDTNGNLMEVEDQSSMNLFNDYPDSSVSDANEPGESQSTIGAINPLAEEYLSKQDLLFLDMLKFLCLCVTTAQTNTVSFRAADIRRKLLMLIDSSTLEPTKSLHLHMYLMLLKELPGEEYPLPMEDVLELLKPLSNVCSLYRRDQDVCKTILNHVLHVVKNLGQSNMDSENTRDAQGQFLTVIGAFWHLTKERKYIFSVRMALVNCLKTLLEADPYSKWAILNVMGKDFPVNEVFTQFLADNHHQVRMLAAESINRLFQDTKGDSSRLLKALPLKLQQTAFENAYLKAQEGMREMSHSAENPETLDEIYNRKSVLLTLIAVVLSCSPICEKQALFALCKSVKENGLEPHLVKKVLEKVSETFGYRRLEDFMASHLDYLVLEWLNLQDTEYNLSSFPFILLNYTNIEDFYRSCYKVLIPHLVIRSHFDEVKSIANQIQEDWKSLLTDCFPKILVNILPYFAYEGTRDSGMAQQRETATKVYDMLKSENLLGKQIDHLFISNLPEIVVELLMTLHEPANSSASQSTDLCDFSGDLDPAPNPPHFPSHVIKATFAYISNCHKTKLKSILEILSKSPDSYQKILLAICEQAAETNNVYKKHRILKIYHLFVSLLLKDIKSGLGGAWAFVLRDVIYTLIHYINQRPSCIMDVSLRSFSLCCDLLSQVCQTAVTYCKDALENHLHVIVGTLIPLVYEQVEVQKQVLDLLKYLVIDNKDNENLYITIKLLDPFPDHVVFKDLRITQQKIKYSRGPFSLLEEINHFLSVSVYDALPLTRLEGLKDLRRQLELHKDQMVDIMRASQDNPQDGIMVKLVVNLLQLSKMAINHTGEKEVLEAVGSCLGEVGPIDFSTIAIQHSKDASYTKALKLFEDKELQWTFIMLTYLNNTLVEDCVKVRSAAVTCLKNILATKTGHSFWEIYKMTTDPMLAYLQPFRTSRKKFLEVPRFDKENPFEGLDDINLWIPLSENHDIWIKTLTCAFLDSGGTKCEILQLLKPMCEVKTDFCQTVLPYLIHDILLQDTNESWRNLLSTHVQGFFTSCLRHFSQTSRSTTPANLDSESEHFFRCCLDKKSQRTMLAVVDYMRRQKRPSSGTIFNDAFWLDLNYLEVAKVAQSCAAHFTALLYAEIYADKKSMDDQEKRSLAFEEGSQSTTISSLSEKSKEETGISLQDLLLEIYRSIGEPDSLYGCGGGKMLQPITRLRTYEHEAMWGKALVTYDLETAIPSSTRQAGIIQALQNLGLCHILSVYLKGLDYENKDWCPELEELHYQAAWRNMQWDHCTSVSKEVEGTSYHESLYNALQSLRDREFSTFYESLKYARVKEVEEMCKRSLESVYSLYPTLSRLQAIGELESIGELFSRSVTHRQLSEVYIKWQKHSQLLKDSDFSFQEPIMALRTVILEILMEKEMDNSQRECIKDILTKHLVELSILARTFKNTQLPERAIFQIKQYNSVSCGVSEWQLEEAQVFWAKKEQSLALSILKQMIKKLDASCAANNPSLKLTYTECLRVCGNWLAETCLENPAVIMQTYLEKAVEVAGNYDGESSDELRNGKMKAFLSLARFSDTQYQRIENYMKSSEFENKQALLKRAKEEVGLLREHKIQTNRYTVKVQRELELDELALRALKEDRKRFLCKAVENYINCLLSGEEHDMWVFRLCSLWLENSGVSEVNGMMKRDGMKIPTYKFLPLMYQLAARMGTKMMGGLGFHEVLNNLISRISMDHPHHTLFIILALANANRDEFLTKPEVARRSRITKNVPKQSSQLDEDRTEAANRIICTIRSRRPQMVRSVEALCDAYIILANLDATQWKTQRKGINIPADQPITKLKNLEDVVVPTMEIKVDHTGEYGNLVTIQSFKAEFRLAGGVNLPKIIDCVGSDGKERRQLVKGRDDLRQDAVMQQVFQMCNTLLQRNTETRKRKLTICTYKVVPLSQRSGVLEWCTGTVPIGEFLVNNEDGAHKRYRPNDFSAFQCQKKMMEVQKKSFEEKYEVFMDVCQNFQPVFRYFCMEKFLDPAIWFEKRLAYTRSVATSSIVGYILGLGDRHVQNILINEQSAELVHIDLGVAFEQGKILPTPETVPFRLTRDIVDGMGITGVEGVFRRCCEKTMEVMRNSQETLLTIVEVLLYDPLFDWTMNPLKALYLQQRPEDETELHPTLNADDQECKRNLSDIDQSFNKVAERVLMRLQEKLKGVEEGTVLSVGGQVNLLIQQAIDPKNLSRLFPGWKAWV
Put plainly: ATM inhibition test (phosphorylation of Chk2 generated by ionizing radiation, AlphaScreen SureFire). Particulars: phosphorylated Chk2 in NCI-H460 cells, ionizing radiation 8Gy, 1 hour after test compound treatment; read-out: ATM inhibitory activity. Type of test: cell-based. Summed up: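 Human NCI-H460 lung cancer cells were treated with compound for 1 h, then irradiated at 8Gy and incubated 1 h at 37° C. Phospho-Chk2 was quantified by AlphaScreen SureFire; inhibition % was normalised between irradiated untreated and non-irradiated untreated wells.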
As to `CCOCC(Nc1ccc2c(c1)Sc1cccc(-c3cc(N4CCOCC4)cc(=O)[nH]3)c1S2)c1ccc(C)cn1` (centres unmarked) [Example 1-12-101, 6-(7-((2-Ethoxy-1-(5-methylpyridin-2-yl)ethyl)amino)thianthren-1-yl)-4-morpholino pyridin-2(1H)-one], the IC50 lay in the range of 100 to 500 nM.

Consider `CC(Nc1ccc2c(c1)Cc1cccc(-c3cc(N4CCOCC4)cc(=O)[nH]3)c1O2)c1ccnc(F)c1` (centres unmarked) [Example 2-14-25], for which the IC50 is 100 to 500 nM.

Regarding `CC(CCN1CCN(C)CC1)Nc1ccc2c(c1)Sc1cccc(-c3cc(N4CCOCC4)cc(=O)[nH]3)c1S2` (centres unmarked) [Example 1-42-2, 6-(7-((4-(4-Methylpiperazin-1-yl)butan-2-yl)amino)thianthren-1-yl)-4-morpholino pyridin-2(1H)-one], the IC50 fell in the range of 100 to 500 nM.

For the compound `O=c1cc(N2CCOCC2)cc(-c2cccc3c2Oc2ccc(NC4CN(CCc5ccccc5)C4)cc2C3)[nH]1` [Example 2-19-6, 4-Morpholino-6-(7-((1-phenethylazetidin-3-yl)amino)-9H-xanthen-4-yl)pyridin-2(1H)-one], the IC50 lay in the range of 100 to 500 nM.

Turning to `CCC(CC)(Nc1ccc2c(c1)Sc1cccc(-c3cc(N4CCOCC4)cc(=O)[nH]3)c1S2)c1ccc(C)cn1` [Example 1-50-6, 6-(7-((3-(5-Methylpyridin-2-yl)pentan-3-yl)amino)thianthren-1-yl)-4-morpholino pyridin-2(1H)-one], the IC50 lay within 500 to 2000 nM.

For the compound `O=C(Nc1ncc(CNc2ccc3c(c2)Sc2cccc(-c4cc(N5CCOCC5)cc(=O)[nH]4)c2S3)cn1)N1CCCC1` [Example 1-12-48, N-(5-(((6-(4-Morpholino-6-oxo-1,6-dihydropyridin-2-yl)thianthren-2-yl)amino)methyl)pyrimidin-2-yl)pyrrolidine-1-car-boxamide], the IC50 was 100 to 500 nM.

In the case of `O=c1cc(N2CCOCC2)cc(-c2cccc3c2Oc2ccc(NCc4cccc(Cl)n4)cc2C3)[nH]1` [Example 2-14-2, 6-(7-(((6-Chloropyridin-2-yl)methyl)amino)-9H-xanthen-4-yl)-4-morpholino pyridin-2(1H)-one], the IC50 lay in the range of 100 to 500 nM.

Regarding `CC(Nc1ccc2c(c1)Sc1cccc(-c3cc(N4CCOCC4)cc(=O)[nH]3)c1S2)c1ccnc(C#N)n1` (centres unmarked) [Example 1-12-82, 4-(1-((6-(4-Morpholino-6-oxo-1,6-dihydropyridin-2-yl)thianthren-2-yl)amino)ethyl) pyrimidine-2-carbonitrile], the IC50 was 100 to 500 nM.

As for `COc1cc(C(C)Nc2ccc3c(c2)Cc2cccc(-c4cc(N5CCOCC5)cc(=O)[nH]4)c2O3)ccn1` (centres unmarked) [Example 2-14-26, 6-(7-((1-(2-Methoxypyridin-4-yl)ethyl)amino)-9H-xanthen-4-yl)-4-morpholino pyridin-2(1H)-one], the IC50 is under 100 nM.

In the case of `Cc1ccc(C(Nc2ccc3c(c2)Sc2cccc(-c4cc(N5CCOCC5)cc(=O)[nH]4)c2S3)C2CCCCC2)nc1` (centres unmarked) [Example 1-12-126, 6-(7-((Cyclohexyl(5-methylpyridin-2-yl)methyl)amino)thianthren-1-yl)-4-morpholino pyridin-2(1H)-one], the IC50 is 500 to 2000 nM.

On to `CNc1ncccc1CNc1ccc2c(c1)Sc1cccc(-c3cc(N4CCOCC4)cc(=O)[nH]3)c1S2` [Example 1-12-24, 6-(7-(((2-(Methylamino)pyridin-3-yl)methyl)amino)thianthren-1-yl)-4-morpholino pyridin-2(1H)-one], for which the IC50 fell in the range of 100 to 500 nM.

For `CC(Nc1ccc2c(c1)Cc1cccc(-c3cc(N4CCOCC4)cc(=O)[nH]3)c1O2)c1cnccn1` (centres unmarked) [Example 2-14-77, 4-Morpholino-6-(7-((1-(pyrazin-2-yl)ethyl)amino)-9H-xanthen-4-yl)pyridin-2 (1H)-one], the IC50 is 100 to 500 nM.

As to `CC(CN1CCN(C)CC1)Nc1ccc2c(c1)Sc1cccc(-c3cc(N4CCOCC4)cc(=O)[nH]3)c1S2` (single isomer, unassigned) [Example 1-13-3-3, 6-(7-((1-(4-methylpiperazin-1-yl)propan-2-yl)amino)thianthren-1-yl)-4-morpholinopyridin-2(1H)-one], the IC50 is 100 to 500 nM.

For the compound `CNCc1ccnc(C(C)Nc2ccc3c(c2)Sc2cccc(-c4cc(N5CCOCC5)cc(=O)[nH]4)c2S3)n1` (centres unmarked) [Example 1-20-1, 6-(7-((1-(4-((methylamino)methyl)pyrimidin-2-yl)ethyl)amino)thianthren-1-yl)-4-morpholinopyridin-2(1H)-one], the IC50 lay in the range of 100 to 500 nM.

With `COc1cncc(CN2CCC(Nc3ccc4c(c3)Cc3cccc(-c5cc(N6CCOCC6)cc(=O)[nH]5)c3O4)CC2)c1` [Example 2-28-2, 6-(7-((1-((5-Methoxypyridin-3-yl)methyl)piperidin-4-yl)amino)-9H-xanthen-4-yl)-4-morpholino pyridin-2(1H)-one], the IC50 lay in the range of 500 to 2000 nM.

For the compound `Cc1cnc(C(CCN2CCN(C)CC2)Nc2ccc3c(c2)Sc2cccc(-c4cc(N5CCOCC5)cc(=O)[nH]4)c2S3)cn1` (single isomer, unassigned) [Example 10-3-2, 6-(7-((3-(4-Methylpiperazin-1-yl)-1-(5-methylpyrazin-2-yl)propyl)amino)thianthren-1-yl)-4-rnorpholino pyridin-2 (1H)-one], the IC50 is under 100 nM.

For `O=c1cc(N2CCOCC2)cc(-c2cccc3c2Sc2ccc(NCCN4CCCOCC4)cc2S3)[nH]1` [Example 1-10-6, 6-(7-((2-(1,4-Oxazepan-4-yl)ethyl)amino)thianthren-1-yl)-4-morpholinopyridin-2(1H)-one], the IC50 was 100 to 500 nM.

For the compound `COc1cccc(C(C)Nc2ccc3c(c2)Cc2cccc(-c4cc(N5CCOCC5)cc(=O)[nH]4)c2O3)n1` (centres unmarked) [Example 2-14-30, 6-(7-((1-(6-Methoxypyridin-2-yl)ethyl)amino)-9H-xanthen-4-yl)-4-morpholine pyridin-2(1H)-one], the IC50 was 100 to 500 nM.

Turning to `Nc1ncc(CNc2ccc3c(c2)Cc2cccc(-c4cc(N5CCOCC5)cc(=O)[nH]4)c2O3)cn1` [Example 2-2-15, 6-(7-(((2-Aminopyrimidin-5-yl)methyl)amino)-9H-xanthen-4-yl)-4-morpholino pyridin-2(1H)-one], the IC50 is 500 to 2000 nM.

For the compound `COc1ccnc(C(C)Nc2ccc3c(c2)Cc2cccc(-c4cc(N5CCOCC5)cc(=O)[nH]4)c2O3)c1` (single isomer, unassigned) [Example 2-14-86-1, 6-(7-((1-(4-methoxypyridin-2-yl)ethyl)amino)-9H-xanthen-4-yl)-4-morpholinopyridin-2(1H)-one], the IC50 lay within 100 to 500 nM.

As for `O=c1cc(N2CCOCC2)cc(-c2cccc3c2Oc2ccc(NCc4cccc(C5CC5)n4)cc2C3)[nH]1` [Example 2-2-68, 6-(7-(((6-Cyclopropylpyridin-2-yl)methyl)amino)-9H-xanthen-4-yl)-4-morpholino pyridin-2(1H)-one], the IC50 was 100 to 500 nM.

For `CC(CN1CCN(Cc2ccccc2)CC1)Nc1ccc2c(c1)Sc1cccc(-c3cc(N4CCOCC4)cc(=O)[nH]3)c1S2` (centres unmarked) [Example 1-15-1, 6-(7-((1-(4-Benzylpiperazin-1-yl)propan-2-yl)amino)thianthren-1-yl)-4-morpholinopyridin-2(1H)-one], the IC50 is 100 to 500 nM.

On to `CCC(C(=O)Nc1ccc2c(c1)Sc1cccc(-c3cc(N4CCOCC4)cc(=O)[nH]3)c1S2)N1CCCC1` (centres unmarked) [Example 1-6-1, N-(6-(4-morpholino-6-oxo-1,6-dihydropyridin-2-yl)thianthren-2-yl)-2-(pyrrolidin-1-yl)butanamide], for which the IC50 is 100 to 500 nM.

For the compound `Cc1ccc(C(Nc2ccc3c(c2)Sc2cccc(-c4cc(N5CCOCC5)cc(=O)[nH]4)c2S3)[C@@H]2CCN(C)C2)nc1` (single isomer, unassigned) [Example 1-56-16], the IC50 was under 100 nM.

Take `O=C(CNc1ccc2c(c1)Sc1cccc(-c3cc(N4CCOCC4)cc(=O)[nH]3)c1S2)N1CCCC1` [Example 1-18-1, 4-morpholino-6-(7-((2-oxo-2-(pyrrolidin-1-yl)ethyl)amino)thianthren-1-yl)pyridin-2(1H)-one]: the IC50 was 100 to 500 nM.

Take `COc1cncc(CNc2ccc3c(c2)Cc2cccc(-c4nc(N5CCOCC5)cc(=O)[nH]4)c2O3)c1` [Example 2-52-2, 2-(7-(((5-Methoxypyridin-3-yl)methyl)amino)-9H-xanthen-4-yl)-6-morpholino pyrimidine-4(3H)-one]: the IC50 was 100 to 500 nM.

As for `Cc1ccc(C(CO)Nc2ccc3c(c2)Sc2cccc(-c4cc(N5CCOCC5)cc(=O)[nH]4)c2S3)nc1` (centres unmarked) [Example 1-12-99, 6-(7-((2-Hydroxy-1-(5-methylpyridin-2-yl)ethyl)amino)thianthren-1-yl)-4-morpholino pyridin-2(1H)-one], the IC50 was in the range of 100 to 500 nM.

For the compound `O=c1cc(N2CCOCC2)cc(-c2cc(F)cc3c2Oc2ccc(NCc4cccc(Cl)n4)cc2C3)[nH]1` [Example 2-48-2, 6-(7-(((6-Chloropyridin-2-yl)methyl)amino)-2-fluoro-9H-xanthen-4-yl)-4-morpholinopyridin-2(1H)-one], the IC50 is 100 to 500 nM.

On to `O=c1cc(N2CCOCC2)cc(-c2cccc3c2Sc2ccc(N[C@@H]4COC[C@H]4N4CCOCC4)cc2S3)[nH]1` (relative stereo) [Example 1-60, Trans-4-morpholino-6-(7-((4-morpholinotetrahydrofuran-3-yl)amino)thianthren-1-yl)pyridin-2(1H)-one], for which the IC50 is under 100 nM.

With `CC(Nc1ccc2c(c1)Cc1cccc(-c3cc(N4CCOCC4)cc(=O)[nH]3)c1O2)c1ncc(CN2CCOCC2)cn1` (centres unmarked) [Example 2-14-67, 4-Morpholino-6-(7-((1-(5-(morpholinomethyl)pyrimidin-2-yl)ethyl)amino)-9H-xanthen-4-yl)pyridin-2 (1H)-one], the IC50 fell in the range of 500 to 2000 nM.

Take `O=c1cc(N2CCOCC2)cc(-c2cccc3c2Sc2ccc(NCc4ccsc4)cc2S3)[nH]1` [Example 1-12-1, 4-morpholino-6-(7-((thiophen-3-ylmethyl)amino)thianthren-1-yl)pyridin-2(1H)-one]: the IC50 lay within 100 to 500 nM.

In the case of `CCCCN1CCC(Nc2ccc3c(c2)Cc2cccc(-c4cc(N5CCOCC5)cc(=O)[nH]4)c2O3)CC1` [Example 2-28-33, 6-(7-((1-Butylpiperidin-4-yl)amino)-9H-xanthen-4-yl)-4-morpholino pyridin-2 (1H)-one], the IC50 lay in the range of 100 to 500 nM.
